Test results as given in ChEMBL document CHEMBL1268972, “Solid-phase synthesis and screening of N-acylated polyamine (NAPA) combinatorial libraries for protein binding” (Bioorg Med Chem Lett, 2010).

Assay: Binding to HIV1 Vpr by isothermal titration calorimetry
Parameters: species or system Human immunodeficiency virus

Work on `C[C@H](CC(N)=O)N(C[C@@H](CCCCN)N(C[C@@H](CCCCN)N(C[C@@H](Cc1ccc(O)cc1)NC(=O)Cc1ccc([N+](=O)[O-])cc1)C(=O)CCc1ccccc1)C(=O)CCc1ccccc1)C(=O)CCc1ccccc1` yielded a Kd of 25 µM.
